In patent US8377955B2, “Branched 3- and 6-substituted quinolines as CGRP receptors antagonists” (Merck, Sharp & Dohme, Corp., priority 2008, dated 2013):
pKi: −log10 of the molar value. Like-named read-outs stand apart in the source and are kept apart here. Each block holds one molecule with its values, some of them ahead of it. No end group written: not given here.

Key:
Human CGRP receptor = molecular target: T1, Human CGRP receptor (Homo sapiens, UniProt O60894+Q16602); experiment: Human CGRP receptor binding (125I-CGRP displacement)
T1 construct: expressed in transfected cells; membranes
Experimental: NATIVE RECEPTOR BINDING ASSAY: The binding of ^125I-CGRP to receptors in SK-N-MC cell membranes was carried out essentially as described (Edvinsson et al. (2001) Eur. J. Pharmacol. 415, 39-44). Briefly, membranes (25 μg) were incubated in 1 mL of binding buffer [10 mM HEPES, pH 7.4, 5 mM MgCl2 and 0.2% bovine serum albumin (BSA)] containing 10 pM ^125I-CGRP and antagonist. After incubation at room temperature for 3 h, the assay was terminated by filtration through GFB glass fibre filter plates (PerkinElmer) that had been blocked with 0.5% polyethyleneimine for 3 h. The filters were washed three times with ice-cold assay buffer (10 mM HEPES, pH 7.4 and 5 mM MgCl2), then the plates were air dried. Scintillation fluid (50 μL) was added and the radioactivity was counted on a Topcount (Packard Instrument). Data analysis was carried out by using Prism and the Ki was determined by using the Cheng-Prusoff equation (Cheng & Prusoff (1973) Biochem. Pharmacol. 22, 3099-3108).
RECOMBINANT RECEPTOR: Human CL receptor (Genbank accession number L76380) was subcloned into the expression vector pIREShyg2 (BD Biosciences Clontech) as a 5′NheI and 3′ PmeI fragment. Human RAMP1 (Genbank accession number AJ001014) was subcloned into the expression vector pIRESpuro2 (BD Biosciences Clontech) as a 5′NheI and 3′NotI fragment. HEK 293 cells (human embryonic kidney cells; ATCC #CRL-1573) were cultured in DMEM with 4.5 g/L glucose, 1 mM sodium pyruvate and 2 mM glutamine supplemented with 10% fetal bovine serum […], 100 units/mL penicillin and 100 μg/mL streptomycin, and maintained at 37° C. and 95% humidity. Cells were subcultured by treatment with 0.25% trypsin with 0.1% EDTA in HBSS. Stable cell line generation was accomplished by co-transfecting 10 μg of DNA with 30 μg Lipofectamine 2000 (Invitrogen) in 75 cm^2 flasks. CL receptor and RAMP1 expression constructs were co-transfected in equal amounts. Twenty-four hours after transfection the cells were diluted and selective medium (growth medium+300 μg/mL hygromycin and 1 μg/mL puromycin) was added the following day. A clonal cell line was generated by single cell deposition utilizing a FACS Vantage SE (Becton Dickinson). Growth medium was adjusted to 150 μg/mL hygromycin and 0.5 μg/mL puromycin for cell propagation.
RECOMBINANT RECEPTOR BINDING ASSAY: Cells expressing recombinant human CL receptor/RAMP1 were washed with PBS and harvested in harvest buffer containing 50 mM HEPES, 1 mM EDTA and Complete protease inhibitors (Roche). The cell suspension was disrupted with a laboratory homogenizer and centrifuged at 48,000 g to isolate membranes. The pellets were resuspended in harvest buffer plus 250 mM sucrose and stored at −70° C. For binding assays, 20 μg of membranes were incubated in 1 ml binding buffer (10 mM HEPES, pH 7.4, 5 mM MgCl2, and 0.2% BSA) for 3 hours at room temperature containing 10 pM ^125I-hCGRP (GE Healthcare) and antagonist. The assay was terminated by filtration through 96-well GFB glass fiber filter plates (PerkinElmer) that had been blocked with 0.05% polyethyleneimine. […]
[formula] Where Y is observed CPM bound, Ymax is total bound counts, Ymin is non specific bound counts, (Ymax−Ymin) is specific bound counts, % Imax is the maximum percent inhibition, % I min is the minimum percent inhibition, radiolabel is the probe, and the Kd is the apparent dissociation constant for the radioligand for the receptor as determined by Hot saturation experiments.

facial blood flow [1] = conditions: rat, trigeminal ganglion stimulation (Escott et al. 1995); cited from earlier work
middle meningeal artery = conditions: rats, electrical stimulation of the dura mater, prior administration (Williamson et al. 1997); cited from earlier work
[2] = system: headache induced by CGRP infusion; conditions: control group (Petersen et al. 2005); cited from earlier work
[3] = system: acute attacks of migraine; conditions: clinical trials (Olesen et al. 2004); cited from earlier work
facial blood flow [4] = conditions: marmoset, electrical stimulation of the trigeminal ganglion (Dodds et al. 2000); cited from earlier work
[5] = read-out: Human CGRP receptor binding Ki
[6] = table of Examples 32-37, read-out: Ki

T1 sequence (Q16602 23-461): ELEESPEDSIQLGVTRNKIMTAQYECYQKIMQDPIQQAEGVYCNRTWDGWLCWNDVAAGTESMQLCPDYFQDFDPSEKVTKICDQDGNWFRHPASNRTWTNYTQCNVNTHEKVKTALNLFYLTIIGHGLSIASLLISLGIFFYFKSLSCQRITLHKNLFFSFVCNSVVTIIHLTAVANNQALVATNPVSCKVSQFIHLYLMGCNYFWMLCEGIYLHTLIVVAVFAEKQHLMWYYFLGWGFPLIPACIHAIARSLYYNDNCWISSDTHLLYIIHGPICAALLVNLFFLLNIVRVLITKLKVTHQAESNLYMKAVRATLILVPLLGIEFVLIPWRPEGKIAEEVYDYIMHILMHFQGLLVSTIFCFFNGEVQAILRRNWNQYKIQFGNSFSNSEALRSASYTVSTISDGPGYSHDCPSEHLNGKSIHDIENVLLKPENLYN
T1 sequence (O60894 27-148): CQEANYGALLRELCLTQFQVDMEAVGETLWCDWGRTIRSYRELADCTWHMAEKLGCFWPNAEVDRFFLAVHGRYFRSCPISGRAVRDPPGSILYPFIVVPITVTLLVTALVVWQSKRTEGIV

Molecule: CCOC(=O)CN(Cc1ccccc1)C(=O)c1cnc2cc3c(cc2c1)C[C@@]1(C3)C(=O)Nc2ncccc21 [Example 2, Ethyl(benzyl{[(7S)-2′-oxo-1′,2′,6,8-tetrahydrospiro[cyclopenta[g]quinoline-7,3′-pyrrolo[2,3-b]pyridin]-3-yl]carbonyl}amino)acetate]
- pKi (Human CGRP receptor; [5]): 7.22

Molecule: CGRP (8-37): a peptide CGRP antagonist; fragment of CGRP that lacks seven N-terminal amino acid residues (VTHRLAGLLSRSGGVVKNNFVPTNVGSKAF; ends and bridges not checked; UniProt P06881 90-119, looked up, fragment)
- effect on increased facial blood flow (facial blood flow [1]): inhibited
- effect on increase in diameter of the middle meningeal artery (middle meningeal artery): blocked

Molecule: NCCCC[C@H](NC(=O)[C@@H](Cc1cc(Br)c(O)c(Br)c1)NC(=O)N1CCC(N2Cc3ccccc3NC2=O)CC1)C(=O)N1CCN(c2ccncc2)CC1 [BIBN4096BS]
- prevention of headache induced by CGRP infusion [2]: able to prevent headache induced by CGRP infusion
- efficacy in treating acute attacks of migraine [3]: effective in treating acute attacks of migraine
- effect on increase in facial blood flow (facial blood flow [4]): blocked

Molecule: CC(c1cc(F)cc(F)c1)N(Cc1cnc2cc3c(cc2c1)C[C@@]1(C3)C(=O)Nc2ncccc21)C(=O)C1CCOCC1 (stereo in doubt) [Example 1, N-[(1R)-1-(3,5-Difluorophenyl)ethyl]-N-{[(7S)-2′-oxo-1′,2′,6,8-tetrahydrospiro-[cyclopenta[g]quinoline-7,3′-pyrrolo[2,3-b]pyridin]-3-yl]methyl}tetrahydro-2H-pyran-4-carboxamide]
- pKi (Human CGRP receptor; [5]): 10.30

More lines, now with the values ahead:

- pKi (Human CGRP receptor; [6]): 7.12
Molecule: CC(C)(C)OC(=O)CC(NC(=O)c1cnc2cc3c(cc2c1)C[C@@]1(C3)C(=O)Nc2ncccc21)c1ccccc1 (stereo partly shown) [Example 36]

- pKi (Human CGRP receptor; [6]): 6.85
Molecule: CC(C)(C)OC(=O)[C@@H](NC(=O)c1cnc2cc3c(cc2c1)C[C@@]1(C3)C(=O)Nc2ncccc21)c1ccccc1 [Example 34]

- pKi (Human CGRP receptor; [6]): 6.92
Molecule: CC(C)(C)OC(=O)[C@H](NC(=O)c1cnc2cc3c(cc2c1)C[C@@]1(C3)C(=O)Nc2ncccc21)c1ccccc1 [Example 33]
